Measured values published in patent US12303479B2, “Chloride intracellular channel 1 for regulation of food intake” (The Regents of the University of California, priority 2019, dated 2025).

Tests used:
Clic1 [1] = biological target: T1, Clic1 (Mus musculus, UniProt Q9Z1Q5); assay: Chronic IAA94 treatment in diet-induced obese mice, 23 days, alone or with Lira; format: in vivo; parameters: endogenous in cells; host or cells: whole live mice (C57B16 WT in the 7-day study); hypothalamus discussed as the site of action; details: daily injections, FIG. 8A
Experimental: FIGS. 8A-8I show another study on chronic IAA94 treatment. Diet-induced obese mice (fed a high fat diet for 6 weeks) received daily injections of either i) vehicle, ii) IAA94—10 mg/kg, iii) IAA94—50 mg/kg, iv) Lira, or v) combination of Lira+IAA94 (50 mg/kg). Daily food intake and body weight were monitored. Sacrifices were performed after 23 days.

Clic1 [2] = biological target: T1, Clic1; assay: Fasting and re-feeding model: food intake and hypothalamic neuropeptide expression after acute IAA94; format: in vivo, mice; parameters: endogenous in cells; host or cells: whole live mice (C57B16 WT in the 7-day study); hypothalamus discussed as the site of action
Experimental: To determine whether the modulation of Clic1 directly affected food intake, mice were treated with a specific Clic1 inhibitor, IAA94^11. Mice were fasted for 23 hours and then treated with either vehicle or IAA94 (50 mg/kg IP) and then re-fed for 1 hour. […] No changes in AgRP or Cart expression were detected.
FIGS. 1A-1C show the role of Clic1 in food intake.
FIGS. 5A-5C show acute studies in which Clic1 inhibition decreases food intake. HET/KO mice are viable, fertile and appear normal. Floxed mice are available at PMID: 20049953 Sydney. […] Male mice were injected with IAA94 (50 mg/kg) or vehicle and then refed. IAA94 (indanyloxyacetic acid 94) is a Clic1 inhibitor that blocks channels and has enzymatic properties.

Clic1 [3] = biological target: T1, Clic1; assay: Chronic Clic1 inhibition in diet-induced obese high fat diet-fed mice, 7 days; format: in vivo, C57B16 WT mice; parameters: endogenous in cells; host or cells: whole live mice (C57B16 WT in the 7-day study); hypothalamus discussed as the site of action; details: IAA94 50 mg/kg IP daily
Experimental: Diet-induced obese mice (fed high fat diet for 6 weeks) were injected with IAA94 (50 mg/kg, IP, daily) or vehicle. Their daily food intake and body weight were monitored. Sacrifices were performed on day 7. […] On day 7 mice were fasted for 5 hours and then treated with IAA94 or VEH and then blood collected one hour later for measurement of leptin (FIG. 7C) GDF-15 (FIG. 7D) insulin (FIG. 7E), and glucose (FIG. 7F). FIGS. 7G-7J show hypothalamic neuropeptide levels determined by quantitative PCR detection. In FIGS. 7A-7B, P<0.05 repeated measures one-way ANOVA with Sidak's multiple comparisons test. In FIGS. 7C-7J, P<0.05 students t-test.

Clic1 [4] = biological target: Clic1 (Homo sapiens, UniProt O00299); details: cited from earlier work
[5] = mice fasted 23 hours, IAA94 50 mg/kg IP, re-fed for 1 hour

SMILES	weight loss on chronic treatment (Clic1 [1])	hyperphagia in response to refeeding (Clic1 [2]; IAA94 50 mg/kg, FIG. 1C)	food intake versus amount of IAA94 administered (Clic1 [2]; male mice, fasting and re-feeding model, FIG. 5C)	AgRP expression (hypothalamic) (Clic1 [2]; [5])	Cart expression (hypothalamic) (Clic1 [2]; [5])	Pome expression (hypothalamic) (Clic1 [2]; [5])	hypothalamic levels of Npy (Clic1 [2]; [5])	reduction of food intake compared with vehicle treated mice (Clic1 [2]; [5])	food intake (Clic1 [3]; 7 days)	reduction of body weight (Clic1 [3]; one week)	inhibition of Clic1 (Clic1 [4])
C[C@]1(C2CCCC2)Cc2cc(OCC(=O)O)c(Cl)c(Cl)c2C1=O [IAA94, R(+)-[(6,7-Dichloro-2-cyclopentyl-2,3-dihydro-2-methyl-1-oxo-1H-inden-5-yl)-oxy]acetic acid]	significant weight loss	decreased hyperphagia	dose dependent	No changes	No changes	increased	significant reduction	~50%	significant reduction in food intake	~12%	–
CN(C)C(=N)NC(=N)N [metformin, N,N-dimethylbiguanide]	–	–	–	–	–	–	–	–	–	–	inhibits Clic1
